Laboratory results from patent publication US7915291B2, “Hepatitis C virus inhibitors” (Bristol-Myers Squibb Company, priority 2002, dated 2011).
Read-outs that look alike come from different tables or passages of the source.

Key:
[1] = target: HCV NS3/4A protease complex, BMS strain (UniProt P27958, C1454S/C1711G, species not given/STRAIN_BMS); assay: Recombinant HCV NS3/4A protease complex FRET peptide assay (BMS strain); assay type: biochemical, HCV genotype 1a
In short: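 Recombinant BMS-strain NS3/4A (His-tagged NS4A with three-lysine tail, E. coli) at 2-3 nM preincubated 1 min with compound, then 2 μM ester-linked NS4A/NS4B-based FRET peptide added. Fluorescence followed in real time ~15 min at 25° C. Percent inhibition from slope of linear fluorescence change versus no-compound control.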

[2] = tested on: HCV replicon in Huh7 cells; assay: HCV replicon cell-based assay; design: species or system HCV strain 1B; settings: Hepatitis C virus
[3] = NS3/4A BMS strain; read-out: IC50 range
[4] = Huh-7, HCV replicon, Huh7 cells, read-out: EC50 range
[5] = read-out: IC50 range; NS3/4A BMS strain

| SMILES | IC50 [1, 3] [nM] | EC50 [2, 4] [nM] | IC50 [1, 5] [nM] | EC50 ([2]; Huh-7, read-out: EC50 range) [nM] |
| --- | --- | --- | --- | --- |
| C=C[C@@H]1C[C@]1(NC(=O)[C@@H]1C[C@@H](Oc2nc(C)cc3ccccc23)CN1C(=O)[C@@H](NC(=O)OC(C)(C)C)C(C)(C)C)C(=O)NS(=O)(=O)C1CC1 [Compound 33] | < 100 | < 100 |  |  |
| C=C[C@@H]1C[C@]1(NC(=O)[C@@H]1C[C@@H](Oc2nc(OC)cc3ccccc23)CN1C(=O)[C@@H](NC(=O)OC(C)(C)C)C(C)(C)C)C(=O)NS(=O)(=O)C1CC1 [Compound 35] | < 100 | < 100 |  |  |
| C=C[C@@H]1C[C@]1(NC(=O)[C@@H]1C[C@@H](Oc2nc(-c3ccccc3)cc3cc(OC)ccc23)CN1C(=O)[C@@H](NC(=O)OC(C)(C)C)C(C)(C)C)C(=O)NS(=O)(=O)C1CC1 [Compound 36] |  |  | < 100 | < 100 |
| C=C[C@@H]1C[C@]1(NC(=O)[C@@H]1C[C@@H](Oc2nc(-c3nccs3)cc3cc(OC)ccc23)CN1C(=O)[C@@H](NC(=O)OC(C)(C)C)C(C)(C)C)C(=O)NS(=O)(=O)C1CC1 [Compound 37] | < 100 | < 100 |  |  |
| C=C[C@@H]1C[C@]1(NC(=O)[C@@H]1C[C@@H](Oc2nc(-c3cc(OC)no3)cc3cc(OC)ccc23)CN1C(=O)[C@@H](NC(=O)OC(C)(C)C)C(C)(C)C)C(=O)NS(=O)(=O)C1CC1 [Compound 38] | < 100 | < 100 |  |  |
| C=C[C@@H]1C[C@]1(NC(=O)[C@@H]1C[C@@H](Oc2nc(-c3ncc(OC)o3)cc3cc(OC)ccc23)CN1C(=O)[C@@H](NC(=O)OC(C)(C)C)C(C)(C)C)C(=O)NS(=O)(=O)C1CC1 [Compound 39] | < 100 | < 100 |  |  |
| C=C[C@@H]1C[C@]1(NC(=O)[C@@H]1C[C@@H](Oc2nc(Cl)cc3cc(OC)ccc23)CN1C(=O)[C@@H](NC(=O)OC(C)(C)C)C(C)(C)C)C(=O)NS(=O)(=O)C1CC1 [Compound 40] | < 100 | 100 to 1000 |  |  |
| C=C[C@@H]1C[C@]1(NC(=O)[C@@H]1C[C@@H](Oc2nc(-c3ccoc3)cc3cc(OC)ccc23)CN1C(=O)[C@@H](NC(=O)OC(C)(C)C)C(C)(C)C)C(=O)NS(=O)(=O)C1CC1 [Compound 41] | < 100 | < 100 |  |  |
| C=C[C@@H]1C[C@]1(NC(=O)[C@@H]1C[C@@H](Oc2nccc3cc(OCC)ccc23)CN1C(=O)[C@@H](NC(=O)OC(C)(C)C)C(C)(C)C)C(=O)NS(=O)(=O)C1CC1 [Compound 42] | < 100 | < 100 |  |  |
| C=C[C@@H]1C[C@]1(NC(=O)C1CC(Oc2nc(-c3ccccc3)nc3ccccc23)CN1C(=O)[C@@H](NC(=O)OC(C)(C)C)C(C)(C)C)C(=O)NS(=O)(=O)C1CC1 (stereo partly shown) [Compound 47] | < 100 | 100 to 1000 |  |  |
| C=C[C@@H]1C[C@]1(NC(=O)C1C[C@@H](Oc2nc(-c3ccccc3)nc3ccc(OC)cc23)CN1C(=O)[C@@H](N)C(C)(C)C)C(=O)NS(=O)(=O)C1CC1 (stereo partly shown) [Compound 50] | 100 to 1000 | 1000 to 10000 |  |  |
| C=C[C@@H]1C[C@]1(NC(=O)[C@@H]1C[C@@H](Nc2nc(-c3ccccc3)cs2)CN1C(=O)[C@@H](NC(=O)OC(C)(C)C)C(C)(C)C)C(=O)NS(=O)(=O)C1CC1 [Compound 53] | 100 to 1000 | 1000 to 10000 |  |  |
| C=C[C@@H]1C[C@]1(NC(=O)[C@@H]1CC(Oc2nccc3cc(OC)ccc23)CN1C(=O)[C@@H](NC(=O)C1CCCC1)C(C)(C)C)C(=O)NS(=O)(=O)C1CC1 (stereo partly shown) [Compound 56] | < 100 | < 100 |  |  |
| C=C[C@@H]1C[C@]1(NC(=O)[C@@H]1CC(Oc2nccc3cc(OC)ccc23)CN1C(=O)[C@@H](NC(=O)C(CC)CC)C(C)(C)C)C(=O)NS(=O)(=O)C1CC1 (stereo partly shown) [Compound 57] | < 100 | 100 to 1000 |  |  |
| C=C[C@@H]1CC1(NC(=O)[C@@H]1CC(Oc2nccc3cc(OC)ccc23)CN1C(=O)[C@@H](NC(=O)CC1CC1)C(C)(C)C)C(=O)NS(=O)(=O)C1CC1 (stereo partly shown) [Compound 58] |  | < 100 | < 100 |  |
| C=C[C@@H]1C[C@]1(NC(=O)[C@@H]1CC(Oc2nccc3cc(OC)ccc23)CN1C(=O)[C@@H](NC(=O)COC)C(C)(C)C)C(=O)NS(=O)(=O)C1CC1 (stereo partly shown) [Compound 59] | < 100 | 100 to 1000 |  |  |
| C=C[C@@H]1CC1(NC(=O)[C@@H]1CC(Oc2nccc3cc(OC)ccc23)CN1C(=O)[C@@H](NC(=O)CO[C@H]1C[C@@H](C)CC[C@@H]1C(C)C)C(C)(C)C)C(=O)NS(=O)(=O)C1CC1 (stereo partly shown) [Compound 60] | < 100 | 1000 to 10000 |  |  |
| C=C[C@@H]1CC1(NC(=O)[C@@H]1CC(Oc2nccc3cc(OC)ccc23)CN1C(=O)[C@@H](NC(=O)CO[C@@H]1C[C@H](C)CC[C@H]1C(C)C)C(C)(C)C)C(=O)NS(=O)(=O)C1CC1 (stereo partly shown) [Compound 61] | 100 to 1000 | 1000 to 10000 |  |  |

| SMILES | IC50 [1, 3] [nM] | EC50 [2, 4] [nM] | IC50 [1, 5] [nM] | EC50 ([2]; Huh-7, read-out: EC50 range) [nM] |
| --- | --- | --- | --- | --- |
| C=C[C@@H]1C[C@]1(NC(=O)[C@@H]1CC(Oc2nccc3cc(OC)ccc23)CN1C(=O)[C@@H](NC(=O)C1C2CC1C2)C(C)(C)C)C(=O)NS(=O)(=O)C1CC1 (stereo partly shown) [Compound 62] | < 100 | < 100 |  |  |
| C=C[C@@H]1C[C@]1(NC(=O)[C@@H]1CC(Oc2nccc3cc(OC)ccc23)CN1C(=O)[C@@H](NC(=O)c1cnccn1)C(C)(C)C)C(=O)NS(=O)(=O)C1CC1 (stereo partly shown) [Compound 63] | < 100 | 1000 to 10000 |  |  |
| C=C[C@@H]1CC1(NC(=O)[C@@H]1CC(Oc2nccc3cc(OC)ccc23)CN1C(=O)[C@@H](NC(=O)OCc1ccccc1)C(C)(C)C)C(=O)NS(=O)(=O)C1CC1 (stereo partly shown) [Compound 64] |  | < 100 | < 100 |  |
| C=C[C@@H]1CC1(NC(=O)[C@@H]1CC(Oc2nccc3cc(OC)ccc23)CN1C(=O)[C@@H](NC(=O)O[C@H]1C[C@@H](C)CC[C@@H]1C(C)C)C(C)(C)C)C(=O)NS(=O)(=O)C1CC1 (stereo partly shown) [Compound 65] | < 100 | 100 to 1000 |  |  |
| C=C[C@@H]1CC1(NC(=O)[C@@H]1CC(Oc2nccc3cc(OC)ccc23)CN1C(=O)[C@@H](NC(=O)O[C@@H]1C[C@H](C)CC[C@H]1C(C)C)C(C)(C)C)C(=O)NS(=O)(=O)C1CC1 (stereo partly shown) [Compound 66] | < 100 | 100 to 1000 |  |  |
| C=C[C@@H]1C[C@]1(NC(=O)[C@@H]1CC(Oc2nccc3cc(OC)ccc23)CN1C(=O)[C@@H](NC(=O)OC(C)(C)CC)C(C)(C)C)C(=O)NS(=O)(=O)C1CC1 (stereo partly shown) [Compound 67] | < 100 | < 100 |  |  |
| C=C[C@@H]1C[C@]1(NC(=O)[C@@H]1CC(Oc2nccc3cc(OC)ccc23)CN1C(=O)[C@@H](NC(=O)OC(C)(C)C(Cl)(Cl)Cl)C(C)(C)C)C(=O)NS(=O)(=O)C1CC1 (stereo partly shown) [Compound 68] | < 100 | < 100 |  |  |
| C=C[C@@H]1CC1(NC(=O)[C@@H]1CC(Oc2nccc3cc(OC)ccc23)CN1C(=O)[C@@H](NC(=O)OC1(C)CCCC1)C(C)(C)C)C(=O)NS(=O)(=O)C1CC1 (stereo partly shown) [Compound 69] |  | < 100 | < 100 |  |
| C=C[C@@H]1CC1(NC(=O)[C@@H]1CC(Oc2nccc3cc(OC)ccc23)CN1C(=O)[C@@H](NC(=O)OC1CCCC1)C(C)(C)C)C(=O)NS(=O)(=O)C1CC1 (stereo partly shown) [Compound 70] | < 100 | < 100 |  |  |
| C=C[C@@H]1C[C@]1(NC(=O)[C@@H]1CC(Oc2nccc3cc(OC)ccc23)CN1C(=O)[C@@H](NC(=O)OC1CCC1)C(C)(C)C)C(=O)NS(=O)(=O)C1CC1 (stereo partly shown) [Compound 71] | < 100 | < 100 |  |  |
| C=C[C@@H]1C[C@]1(NC(=O)[C@@H]1CC(Oc2nccc3cc(OC)ccc23)CN1C(=O)[C@@H](NC(=O)OC(C)(C)c1ccccc1)C(C)(C)C)C(=O)NS(=O)(=O)C1CC1 (stereo partly shown) [Compound 72] | < 100 | 100 to 1000 |  |  |
| C=C[C@@H]1C[C@]1(NC(=O)[C@@H]1CC(Oc2nccc3cc(OC)ccc23)CN1C(=O)[C@@H](NC(=O)OC(C)(C)c1ccc(C(F)(F)F)cc1)C(C)(C)C)C(=O)NS(=O)(=O)C1CC1 (stereo partly shown) [Compound 73] | < 100 | 100 to 1000 |  |  |
| C=C[C@@H]1CC1(NC(=O)[C@@H]1CC(Oc2nccc3cc(OC)ccc23)CN1C(=O)[C@@H](NC(=O)NC1CCCC1)C(C)(C)C)C(=O)NS(=O)(=O)C1CC1 (stereo partly shown) [Compound 75] | < 100 | < 100 |  |  |
| C=C[C@@H]1CC1(NC(=O)[C@@H]1CC(Oc2nccc3cc(OC)ccc23)CN1C(=O)[C@@H](NC(=O)NC(C)(C)CC)C(C)(C)C)C(=O)NS(=O)(=O)C1CC1 (stereo partly shown) [Compound 76] |  | < 100 | < 100 |  |
| C=C[C@@H]1C[C@]1(NC(=O)[C@@H]1CC(Oc2nccc3cc(OC)ccc23)CN1C(=O)[C@@H](NC(=O)N(C)C(C)(C)C)C(C)(C)C)C(=O)NS(=O)(=O)C1CC1 (stereo partly shown) [Compound 77] | < 100 | 100 to 1000 |  |  |
| C=C[C@@H]1C[C@]1(NC(=O)[C@@H]1CC(Oc2nccc3cc(OC)ccc23)CN1C(=O)[C@@H](NC(=O)N(C)OC)C(C)(C)C)C(=O)NS(=O)(=O)C1CC1 (stereo partly shown) [Compound 78] | < 100 | 1000 to 10000 |  |  |
| C=C[C@@H]1C[C@]1(NC(=O)[C@@H]1CC(Oc2nccc3cc(OC)ccc23)CN1C(=O)[C@@H](NC(=O)N(CC)CC)C(C)(C)C)C(=O)NS(=O)(=O)C1CC1 (stereo partly shown) [Compound 79] | < 100 | 100 to 1000 |  |  |
